Active and inactive are the calls of the source. No cut-off for these calls is given here.
Tests used:
[1] = test system: Radical scavenging activity; assay: Antioxidant activity assessed as DPPH free radical scavenging activity at 1.85 mM after 10 mins relative to control; format: functional
[2] = target: T1, Tyrosinase (Agaricus bisporus) (UniProt O42713); assay: Inhibition of mushroom tyrosinase using L-DOPA as substrate at 50 uM after 10 mins by UV absorbance method
T1 sequence (whole entry): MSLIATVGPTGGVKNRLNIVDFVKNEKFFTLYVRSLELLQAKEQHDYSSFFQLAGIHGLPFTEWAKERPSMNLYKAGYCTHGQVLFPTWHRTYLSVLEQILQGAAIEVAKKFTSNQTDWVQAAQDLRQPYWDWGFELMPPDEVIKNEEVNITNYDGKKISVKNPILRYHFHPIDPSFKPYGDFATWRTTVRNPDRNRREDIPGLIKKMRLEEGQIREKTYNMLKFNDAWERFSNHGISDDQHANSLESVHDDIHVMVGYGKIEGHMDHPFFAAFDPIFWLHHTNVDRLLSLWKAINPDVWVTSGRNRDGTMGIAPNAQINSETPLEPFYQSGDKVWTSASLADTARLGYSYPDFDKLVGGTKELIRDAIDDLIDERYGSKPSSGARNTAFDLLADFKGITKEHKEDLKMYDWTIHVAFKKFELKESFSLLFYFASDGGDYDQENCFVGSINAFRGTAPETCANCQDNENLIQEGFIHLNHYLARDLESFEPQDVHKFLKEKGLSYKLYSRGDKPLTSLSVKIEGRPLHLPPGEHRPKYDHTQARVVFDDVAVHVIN

[3] = Antioxidant activity against linoleic acid lipid peroxidation at 90 uM after 48 hrs by ferric thiocyanate method; format: functional
Mel-Ab = assay: Inhibition of melanogenesis in mouse Mel-Ab cells assessed as reduction of melanin production at 100 uM after 4 days by ELISA reader; format: functional, cell-based
[4] = Antioxidant activity against linoleic acid lipid peroxidation at 90 uM by ferric thiocyanate method; format: functional
[5] = Cytotoxicity against mouse Mel-Ab cells up to 200 uM after 24 hrs by crystal violet staining based ELISA; format: cell-based

SMILES	inhibition [2]	Activity [1]	other results
O=C(/C=C/c1ccc(O)c(O)c1)N[C@@H](Cc1ccccc1)C(=O)NO	–	40.9%	–
O=C(/C=C/c1ccc(O)c(O)c1)N[C@H](Cc1ccccc1)C(=O)NO	–	47.6%	–
O=C(O)[C@@H]1CCCN1C(=O)/C=C/c1ccc(O)c(O)c1	–	20%	Activity [3]: Active; Activity [4]: Active
O=C(/C=C/c1ccc(O)c(O)c1)N[C@H](C(=O)NO)c1ccccc1	–	56.2%	–

Continued, in another order:

inhibition [2]	SMILES	Activity [1]	other results
Active	O=C(/C=C/c1ccc(O)c(O)c1)NCCC(=O)NO	42.2%	–
inactive	O=C(O)/C=C/c1ccc(O)c(O)c1	52.4%	–
Active	O=C(NO)[C@@H]1CCCN1C(=O)/C=C/c1ccc(O)c(O)c1	77.2%	Activity [3]: Active; inhibition (Mel-Ab): Active; Activity [4]: Active; Activity [5]: Non-toxic
Active	C[C@H](NC(=O)/C=C/c1ccc(O)c(O)c1)C(=O)NO	40.7%	–
Active	CC(C)C[C@H](NC(=O)/C=C/c1ccc(O)c(O)c1)C(=O)NO	51.1%	–
Active	O=C(/C=C/c1ccc(O)c(O)c1)NC(Cc1ccccc1)C(=O)NO (stereo not drawn)	–	–
Active	O=C(/C=C/c1ccc(O)c(O)c1)NCC(=O)NO	39.4%	–
